Experiments:
Format in all cases: in vivo
[1] = system: Ctenocephalides felis; test: Ctenocephalides felis oral test (CTECFE); settings: 100 ppm in citrated cattle blood, after two days
Experimental: Ctenocephalides Felis Oral Test (CTECFE)
Solvent: 1 Part by Weight of Dimethyl Sulphoxide
To produce a suitable preparation of active compound, 10 mg of active compound are mixed with 0.5 ml of dimethyl sulphoxide. Part of the concentrate is diluted with citrated cattle blood, and the desired concentration is prepared.
About 20 unfed adult fleas (Ctenocephalides felis) are placed into a chamber which is closed at the top and bottom with gauze. A metal cylinder whose bottom end is closed with parafilm is placed onto the chamber. The cylinder contains the blood/active compound preparation, which can be taken up by the fleas through the parafilm membrane. After two days, the kill in % is determined 100% means that all fleas have been killed; 0% means that none of the fleas have been killed.

[2] = system: green peach aphid (Myzus persicae); test: Myzus test (MYZUPE spray treatment); settings: 500 g/ha, spray, after 6 days
Summary of the method: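 Activity read as % aphid kill 6 days after treatment (0% = none killed). Compound formulated in acetone and dimethylformamide plus alkylaryl polyglycol ether, diluted in water and sprayed onto infested Brassica pekinensis leaf discs.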

[3] = system: larvae of the mustard beetle (Phaedon cochleariae); test: Phaedon test (PHAECO spray treatment); settings: 500 g/ha, spray, after 7 days
Summary of the method: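 Mustard beetle larvae were placed on dried Brassica pekinensis leaf discs previously spray-treated with test compound; formulation used acetone and dimethylformamide solvents plus alkylaryl polyglycol ether emulsifier, diluted with emulsifier-containing water.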

[4] = system: Boophilus microplus strain Parkhurst, SP-resistant; test: Boophilus microplus test (DIP); settings: 100 ppm, after 7 days
Experimental: Boophilus microplus Test (DIP) Test Animals: Adult Fat Females of the Boophilus microplus Strain Parkhurst—SP-Resistant) Solvent: Dimethyl Sulphoxide
10 mg of active compound are dissolved in 0.5 ml of dimethyl sulphoxide. To produce a suitable formulation, the active compound solution is diluted with water to the particular desired concentration.
This active compound preparation is pipetted into tubes. 8-10 ticks are transferred into a further tube provided with holes. The tube is dipped into the active compound preparation, with all the ticks being wetted completely. After the liquid has run off, the ticks are transferred to filter discs in plastic dishes and kept in a climatized room. After 7 days, the activity is checked for deposition of fertile eggs. Eggs whose fertility is not visible from the outside are kept in glass tubes in a climatized cupboard until the larvae have hatched. An activity of 100% means that no tick has laid fertile eggs.

[5] = system: Boophilus microplus; test: Boophilus microplus test (BOOPMI injection); settings: 20 μg/animal, injection into the abdomen, after 7 days
Experimental: Boophilus microplus Test (BOOPMI Injection)
(§1) Solvent: Dimethyl Sulphoxide
To produce a suitable preparation of active compound, 10 mg of active compound are mixed with 0.5 ml of solvent and the concentrate is diluted with solvent to the desired concentration. The solution of active compound is injected into the abdomen (Boophilus microplus), and the animals are transferred into dishes and kept in a climatized room. The activity is assessed by […] of fertile eggs.
After 7 days, the effect in % is determined 100% means that none of the ticks has laid any fertile eggs.

[6] = system: Anopheles gambiae (homocygus kdr); test: Anopheles test (ANPHGB surface treatment); settings: for knock-down activity: 100 mg/m^2, two hours after contact, exposition 30 minutes
Summary of the method: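 Adult mosquitoes held 30 min on a glazed tile treated with a dried 2 mg/ml acetone solution of compound. Mortality scored at 24 h (100% = all killed), knock-down percentage at 2 h post-contact.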

[7] = system: caterpillars of the army worm (Spodoptera frugiperda); test: Spodoptera frugiperda test (SPODFR spray treatment); settings: 500 g/ha, spray, after 7 days
Summary of the method: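 Activity in % read 7 days after armyworm caterpillars were placed on dried, sprayed Zea mays leaf discs; 0% means none killed. Spray prepared from an acetone/DMF concentrate with emulsifier, diluted with emulsifier-containing water.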

[8] = system: greenhouse red spider mite (Tetranychus urticae); test: Tetranychus test; OP-resistant (TETRUR spray treatment); settings: 500 g/ha, spray, after 6 days
Summary of the method: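 Activity, as % of mites killed (0–100%), was assessed 6 days after spraying. The spray was compound formulated with acetone, DMF and emulsifier, then diluted in water. It was applied to Phaseolus vulgaris leaf discs carrying every life stage of an OP-resistant spider mite strain.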

[9] = system: Lucilia cuprina larvae; test: Lucilia cuprina test (LUCICU); settings: 100 ppm, after 2 days
Experimental: Lucilia cuprina Test (LUCICU)
as §1
(§2) To produce a suitable preparation of active compound, 10 mg of active compound are mixed with 0.5 ml of dimethyl sulphoxide and the concentrate is diluted with water to the desired concentration. Vessels containing horsemeat treated with the active compound preparation of the desired concentration are populated with about 20 Lucilia cuprina larvae.
After 2 days, the kill in % is determined. 100% means that all larvae have been killed; 0% means that none of the larvae have been killed.

[10] = system: cat fleas (Ctenocephalides felis, fully sensitive laboratory strain); test: Contact test against fleas in-vitro (CTECFE contact); settings: 500 g/ha, after 48 h
Experimental: Contact Test Against Fleas In-Vitro (CTECFE Contact)
An amount of 0.9 mg of active compound is weighed out, and 1 ml of acetone is added.
Of this acetone solution, either […] are transferred directly into roll-necked test tubes or an aliquot is diluted with 4 parts of acetone 1:5. For its part, 250 μl of this dilution are pipetted into roll-necked test tubes, or the dilution is diluted further, etc., until the desired number of dilution steps is reached.
The roll-necked test tubes containing the solution of the active compound in acetone are immediately coated in a fume cupboard by 2 h of swing rotation at 30 rpm. After evaporation of the solvent, the active compound contained in the acetone gives, at the highest concentration tested, an active compound content of 500 g/ha (or 500 μg/dm^2) on the surface of the test tube.
10-20 Adult cat fleas (Ctenocephalides felis, fully sensitive laboratory strain) anesthetized with CO2 are transferred into the test tubes prepared in this manner, and the test tubes are closed with a plastic roll-necked lid provided with fine holes.
The test tubes are stored vertically at room temperature and humidity for 24 or 48 h. After 24 and 48 h, the activity of the active compound applied is determined by comparison with an acetone-treated control. Here, an observed normal activity for all fleas corresponds to 0% activity, a strongly restricted or uncoordinated (knock-down) movement or death of all fleas corresponds to 100% activity.

[11] = system: Aedes aegypti; test: Aedes test (AEDSAE surface treatment); settings: for knock-down activity: 100 mg/m^2, two hours after contact, exposition 30 minutes
Experimental: Aedes Test (AEDSAE Surface Treatment)
To produce a suitable preparation of active compound, the active compound is dissolved in acetone (2 mg/ml). The active compound preparation is pipetted onto a glazed tile and, after drying, adult mosquitoes of the species Aedes aegypti are placed onto the treated tile. The exposition time is 30 minutes.
Two hours after contact to the treated surface, the knock-down proportion of the test animals in % is determined.
24 hours after contact to the treated surface, the mortality in % is determined Here, 100% means that all mosquitoes have been killed; 0% means that none of the mosquitoes has been killed.

[12] = system: Musca domestica; test: Musca domestica test (MUSCDO); settings: 100 ppm, after 2 days
Experimental: Musca domestica Test (MUSCDO)
as §1
as §2, with “a sponge” for “horsemeat”, “adult Musca domestica.” for “about 20 Lucilia cuprina larvae.”
After 2 days, the kill in % is determined 100% means that all flies have been killed; 0% means that none of the flies have been killed.

## Cc1ccc(N=C2C(=CSc3cccc(Cl)c3)CCc3ccccc32)cc1 [Example 1-62]
[1]
  activity (kill in %): 100%
[2]
  activity (aphids killed): 100%
[3]
  activity (beetle larvae killed): 100%
[4]
  activity (100% = no tick has laid fertile eggs): 100%
[5]
  activity (100% = none of the ticks has laid any fertile eggs): 100%
[6]
  knock-down activity: 100%
[7]
  activity (caterpillars killed): 100%
[8]
  activity (spider mites killed): 100%
[9]
  activity (kill in %): 80%
[10]
  activity against cat fleas: 100%

## Cc1ccc(N=C2C(=CSc3ccc(F)cc3F)CCc3ccccc32)cc1 [Example 1-79]
[1]
  activity (kill in %): 100%
[2]
  activity (aphids killed): 100%
[3]
  activity (beetle larvae killed): 100%
[11]
  knock-down activity: 100%
[5]
  activity (100% = none of the ticks has laid any fertile eggs): 100%
[6]
  knock-down activity: 100%
[7]
  activity (caterpillars killed): 100%
[8]
  activity (spider mites killed): 100%
[9]
  activity (kill in %): 100%
[10]
  activity against cat fleas: 100%

## Cc1ccc(N=C2C(=CSc3ccc(F)cc3)CCc3c(F)cccc32)cc1 (mixture of isomers) [Example 1-34]
[1]
  activity (kill in %): 100%
[3]
  activity (beetle larvae killed): 100%
[11]
  knock-down activity: 100%
[4]
  activity (100% = no tick has laid fertile eggs): 80%
[5]
  activity (100% = none of the ticks has laid any fertile eggs): 100%
[6]
  knock-down activity: 100%
[7]
  activity (caterpillars killed): 100%
[9]
  activity (kill in %): 100%
[10]
  activity against cat fleas: 100%

## Cc1ccc(N=C2C(=CSc3ccc(F)c(F)c3)CCc3ccccc32)cc1 [Example 1-74]
[1]
  activity (kill in %): 80%
[2]
  activity (aphids killed): 100%
[3]
  activity (beetle larvae killed): 100%
[11]
  knock-down activity: 95%
[5]
  activity (100% = none of the ticks has laid any fertile eggs): 100%
[6]
  knock-down activity: 100%
[7]
  activity (caterpillars killed): 100%
[8]
  activity (spider mites killed): 100%
[9]
  activity (kill in %): 100%
[10]
  activity against cat fleas: 100%

## Cc1ccc(N=C2C(=CSc3cc(F)cc(F)c3)CCc3ccccc32)cc1 [Example 1-81]
[1]
  activity (kill in %): 100%
[2]
  activity (aphids killed): 100%
[3]
  activity (beetle larvae killed): 100%
[5]
  activity (100% = none of the ticks has laid any fertile eggs): 100%
[6]
  knock-down activity: 100%
[7]
  activity (caterpillars killed): 100%
[8]
  activity (spider mites killed): 100%
[9]
  activity (kill in %): 100%
[10]
  activity against cat fleas: 100%

## Cc1ccc(N=C2C(=CSc3ccccc3)CSc3ccccc32)cc1 [Example 1-4]
[1]
  activity (kill in %): 100%
[2]
  activity (aphids killed): 100%
[3]
  activity (beetle larvae killed): 100%
[4]
  activity (100% = no tick has laid fertile eggs): 100%
[5]
  activity (100% = none of the ticks has laid any fertile eggs): 100%
[6]
  knock-down activity: 100%
[7]
  activity (caterpillars killed): 100%
[8]
  activity (spider mites killed): 100%
[9]
  activity (kill in %): 100%
[10]
  activity against cat fleas: 100%

## Cc1ccc(N=C2/C(=C/Sc3ccccc3)CCc3ccccc32)cc1 [Example 1-1]
[1]
  activity (kill in %): 80%
[2]; Myzus persicae, 144 h, read-out: activity (aphids killed)
  pest or weed control at 500 g/ha: 100%
[3]; Phaedon cochleariae, 168 h, read-out: activity (beetle larvae killed)
  pest or weed control at 500 g/ha: 100%
[11]
  knock-down activity: 100%
[11]; Aedes aegypti, read-out: activity (mortality in %)
  mortality at 100 mg/m2: 100%
[4]
  activity (100% = no tick has laid fertile eggs): 100%
[5]
  activity (100% = none of the ticks has laid any fertile eggs): 100%
[6]
  knock-down activity: 100%
[6]; Anopheles gambiae, read-out: activity (mortality in %)
  mortality at 100 mg/m2: 100%
[7]; Spodoptera frugiperda, 168 h, read-out: activity (caterpillars killed)
  pest or weed control at 500 g/ha: 100%
[8]; Tetranychus urticae, 144 h, read-out: activity (spider mites killed)
  pest or weed control at 500 g/ha: 100%
[9]
  activity (kill in %): 100%
[10]
  activity against cat fleas: 100%

## Cc1ccc(N=C2C(=CSc3ccccc3F)CCc3ccccc32)cc1 [Example 1-80]
[1]
  activity (kill in %): 90%
[2]
  activity (aphids killed): 100%
[3]
  activity (beetle larvae killed): 100%
[11]
  knock-down activity: 80%
[5]
  activity (100% = none of the ticks has laid any fertile eggs): 100%
[6]
  knock-down activity: 100%
[7]
  activity (caterpillars killed): 100%
[8]
  activity (spider mites killed): 100%
[9]
  activity (kill in %): 100%
[10]
  activity against cat fleas: 100%

## Cc1ccc(N=C2C(=CSc3ccc(F)cc3)C(C)c3cc(C)ccc32)c(C)c1 (mixture of isomers) [Example 1-85]
[1]
  activity (kill in %): 90%
[2]
  activity (aphids killed): 100%
[3]
  activity (beetle larvae killed): 100%
[5]
  activity (100% = none of the ticks has laid any fertile eggs): 100%
[6]
  knock-down activity: 100%
[7]
  activity (caterpillars killed): 100%
[8]
  activity (spider mites killed): 100%
[9]
  activity (kill in %): 100%
[10]
  activity against cat fleas: 100%

## COc1ccc(N=C2C(=CSc3ccccc3)CCc3ccccc32)cc1 [Example 1-10]
[1]
  activity (kill in %): 80%
[3]
  activity (beetle larvae killed): 100%
[5]
  activity (100% = none of the ticks has laid any fertile eggs): 100%
[6]
  knock-down activity: 95%
[12]
  activity (kill in %): 100%
[7]
  activity (caterpillars killed): 100%
[8]
  activity (spider mites killed): 100%
[9]
  activity (kill in %): 90%
[10]
  activity against cat fleas: 100%

## Cc1ccc(N=C2C(=CSc3ccc(Cl)cc3)CCc3ccccc32)cc1 [Example 1-59]
[1]
  activity (kill in %): 100%
[2]
  activity (aphids killed): 100%
[3]
  activity (beetle larvae killed): 100%
[4]
  activity (100% = no tick has laid fertile eggs): 100%
[5]
  activity (100% = none of the ticks has laid any fertile eggs): 100%
[7]
  activity (caterpillars killed): 100%
[8]
  activity (spider mites killed): 100%
[9]
  activity (kill in %): 90%
[10]
  activity against cat fleas: 100%

From US9055743B2, “Alpha, beta-unsaturated imines” (BAYER INTELLECTUAL PROPERTY GMBH, priority 2010, dated 2015)
